Assay results taken from patent US10906915B2, “Substituted pyrazoloazepin-4-ones and their use as phosphodiesterase inhibitors” (LEO Pharma A/S, priority 2016, dated 2021).
Read-outs that look alike come from different tables or passages of the source.

Target: human PDE4D catalytic domain (UniProt no. Q08499) (Homo sapiens (Human), UniProt Q08499)
Test: PDE4 assay (TR-FRET, FAM-cAMP cleavage)
Assay type: biochemical
Details: read-out: PDE4 IC50 range
Summary of the method: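 Read-out is time-resolved FRET from Tb donor to FAM-AMP captured on trivalent-metal nanoparticles added to stop the reaction. Substrate was a mix of plain and FAM-labelled cAMP, cleaved by human PDE4D catalytic domain ([…]) with titrated compound; IC50 ranges (nM) versus controls.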

[1] = human PDE4D catalytic domain, molar concentration giving 50% inhibition of substrate cleavage

Sequence of human PDE4D catalytic domain (Q08499 380-740 limits assumed): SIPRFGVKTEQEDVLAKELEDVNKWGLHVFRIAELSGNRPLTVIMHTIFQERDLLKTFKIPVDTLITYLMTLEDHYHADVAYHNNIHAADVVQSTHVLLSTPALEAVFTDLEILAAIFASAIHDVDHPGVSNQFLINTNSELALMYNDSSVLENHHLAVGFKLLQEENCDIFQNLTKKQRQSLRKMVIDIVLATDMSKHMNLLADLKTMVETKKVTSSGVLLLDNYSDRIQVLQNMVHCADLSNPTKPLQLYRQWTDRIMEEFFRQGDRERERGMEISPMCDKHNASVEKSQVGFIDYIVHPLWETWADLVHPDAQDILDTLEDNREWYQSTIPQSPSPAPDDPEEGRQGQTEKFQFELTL

CCc1nn(CCCOC(=O)c2cccc(S(=O)(=O)NC)c2)c2c1C(=O)NCC1(CCOCC1)C2 [Example 116, 3-(3-ethyl-4-oxo-spiro[6,8-dihydro-5H-pyrazolo[4,3-c]azepine-7,4′-tetrahydropyran]-1-yl)propyl 3-(methylsulfamoyl) benzoate]
IC50 [1]: < 0.1 µM

CCc1nn(CC(C)(C)COC(=O)c2cccc(C(=O)N3CCOCC3)c2)c2c1C(=O)NCC1(CCOCC1)C2 [Example 347, [3-(3-ethyl-4-oxo-spiro[6,8-dihydro-5H-pyrazolo[4,3-c]azepine-7,4′-tetrahydropyran]-1-yl)-2,2-dimethyl-propyl] 3-(morpholine-4-carbonyl)benzoate]
IC50: < 0.1 µM

CCc1nn(CCCOC(=O)c2ccc(Cl)cc2C(F)(F)F)c2c1C(=O)NCC1(CCOCC1)C2 [Example 121, 3-(3-ethyl-4-oxo-spiro[6,8-dihydro-5H-pyrazolo[4,3-c]azepine-7,4′-tetrahydropyran]-1-yl)propyl 4-chloro-2-(trifluoromethyl)benzoate]
IC50 [1]: < 0.1 µM

CCc1nn(CCCOC(=O)c2ccc(S(=O)(=O)CC)cc2)c2c1C(=O)NCC1(CCOCC1)C2 [Example 115, 3-(3-ethyl-4-oxo-spiro[6,8-dihydro-5H-pyrazolo[4,3-c]azepine-7,4′-tetrahydropyran]-1-yl)propyl 4-ethylsulfonylbenzoate]
IC50 [1]: < 0.1 µM

CCc1nn(CCCCOC(=O)c2ccc(S(=O)(=O)N3CCOCC3)cc2)c2c1C(=O)NCC1(CCOCC1)C2 [Example 378, 4-(3-ethyl-4-oxo-spiro[6,8-dihydro-5H-pyrazolo[4,3-c]azepine-7,4′-telrahydropyran]-1-yl)butyl 4-morpholinosulfonylbenzoate]
IC50: 0.1 to 0.5 µM

CCc1nn(CC(C)(C)COC(=O)c2ccc(S(=O)(=O)C3CCCC3)cc2)c2c1C(=O)NCC1(CCOCC1)C2 [Example 319, [3-(3-ethyl-4-oxo-spiro[6,8-dihydro-5H-pyrazolo[4,3-c]azepine-7,4′-tetrahydropyran]-1-yl)-2,2-dimethyl-propyl] 4-cyclopentylsulfonylbenzoate]
IC50: < 0.1 µM

CCc1nn(C[C@@H](C)COC(=O)c2cccc(S(=O)(=O)N3CCN(C(C)=O)CC3)c2)c2c1C(=O)NCC1(CCOCC1)C2 [Example 251, [(2R)-3-(3-ethyl-4-oxo-spiro[6,8-dihydro-5H-pyrazolo[4,3-c]azepine-7,4′-tetrahydropyran]-1-yl)-2-methyl-propyl] 3-(4-acetylpiperazin-1-yl)sulfonylbenzoate]
IC50 [1]: < 0.1 µM

CCc1nn(C[C@@H](C)COC(=O)c2ccc(C(N)=O)cc2)c2c1C(=O)NCC1(CCOCC1)C2 [Example 252, [(2R)-3-(3-ethyl-4-oxo-spiro[6,8-dihydro-5H-pyrazolo[4,3-c]azepine-7,4′-tetrahydropyran]-1-yl)-2-methyl-propyl] 4-carbamoylbenzoate]
IC50 [1]: < 0.1 µM

CCc1nn(CCCOC(=O)c2ccc(F)c(F)c2)c2c1C(=O)NCC1(CCOCC1)C2 [Example 44, 3-(3-ethyl-4-oxo-spiro[6,8-dihydro-5H-pyrazolo[4,3-c]azepine-7,4′-tetrahydropyran]-1-yl)propyl 3,4-difluorobenzoate]
IC50 [1]: < 0.1 µM

CCc1nn(CCCOC(=O)c2ccc(OC)c(C)c2)c2c1C(=O)NCC1(CCOCC1)C2 [Example 58, 3-(3-ethyl-4-oxo-spiro[6,8-dihydro-5H-pyrazolo[4,3-c]azepine-7,4′-tetrahydropyran]-1-yl)propyl 4-methoxy-3-methyl-benzoate]
IC50 [1]: < 0.1 µM

CCc1nn(CC(C)(C)COC(=O)c2cccc(S(=O)(=O)CC)c2)c2c1C(=O)NCC1(CCOCC1)C2 [Example 311, [3-(3-ethyl-4-oxo-spiro[6,8-dihydro-5H-pyrazolo[4,3-c]azepine-7,4′-tetrahydropyran]-1-yl)-2,2-dimethyl-propyl] 3-ethylsulfonylbenzoate]
IC50: < 0.1 µM

CCc1nn(CCCOC(=O)c2ccc(C(=O)N3CCCCC3)cc2)c2c1C(=O)NCC1(CCOCC1)C2 [Example 146, 3-(3-ethyl-4-oxo-spiro[6,8-dihydro-5H-pyrazolo[4,3-c]azepine-7,4′-tetrahydropyran]-1-yl)propyl 4-(piperidine-1-carbonyl)benzoate]
IC50 [1]: < 0.1 µM

CCc1nn(CCCOC(=O)c2cc(OC)ccc2F)c2c1C(=O)NCC1(CCOCC1)C2 [Example 67, 3-(3-ethyl-4-oxo-spiro[6,8-dihydro-5H-pyrazolo[4,3-c]azepine-7,4′-tetrahydropyran]-1-yl)propyl 2-fluoro-5-methoxy-benzoate]
IC50 [1]: < 0.1 µM

CCc1nn(C[C@@H](C)COC(=O)c2cc(C(F)(F)F)ccc2C)c2c1C(=O)NCC1(CCOCC1)C2 [Example 218, [(2R)-3-(3-ethyl-4-oxo-spiro[6,8-dihydro-5H-pyrazolo[4,3-c]azepine-7,4′-tetrahydropyran]-1-yl)-2-methyl-propyl] 2-methyl-5-(trifluoromethyl)benzoate]
IC50 [1]: < 0.1 µM

CCc1nn(C[C@@H](C)COC(=O)c2ccc(C(F)(F)F)cc2Cl)c2c1C(=O)NCC1(CCOCC1)C2 [Example 237, [(2R)-3-(3-ethyl-4-oxo-spiro[6,8-dihydro-5H-pyrazolo[4,3-c]azepine-7,4′-tetrahydropyran]-1-yl)-2-methyl-propyl] 2-chloro-4-(trifluoromethyl)benzoate]
IC50 [1]: < 0.1 µM

CCc1nn(C[C@@H](C)COC(=O)c2cccc(F)c2OC)c2c1C(=O)NCC1(CCOCC1)C2 [Example 192, [(2R)-3-(3-ethyl-4-oxo-spiro[6,8-dihydro-5H-pyrazolo[4,3-c]azepine-7,4′-tetrahydropyran]-1-yl)-2-methyl-propyl] 3-fluoro-2-methoxy-benzoate]
IC50 [1]: < 0.1 µM

CCc1nn(CCCOC(=O)c2ccc(C)c(C)c2)c2c1C(=O)NCC1(CCOCC1)C2 [Example 26, 3-(3-ethyl-4-oxo-spiro[6,8-dihydro-5H-pyrazolo[4,3-c]azepine-7,4′-tetrahydropyran]-1-yl)propyl 3,4-dimethylbenzoate]
IC50 [1]: < 0.1 µM
